Measurements published in PubChem BioAssay AID330 (DTP/NCI, 2004).
Where “and” joins values, the source holds several entries; their conditions need not be identical. Equal values may be shown once. Toxic doses and inconclusive results are not listed. Rule for the calls: active = survival T/C of 150% or more; inactive = T/C below 125% in these data. Peptide text beside a SMILES is read from it. * marks the point of attachment. Cbz = O=C(OCc1ccccc1)*; Bn = c1ccc(C*)cc1

Tested on: P388 leukemia ip, CD2F1 mice, survival T/C
Test: NCI In Vivo Anticancer Drug Screen. Data for tumor model P388 Leukemia (intraperitoneal) in CD2F1 (CDF1) mice
Conditions: endpoint: median survival time, higher = longer survival
Outline: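 Mice carrying the transplanted tumor received test compound or vehicle. Survival was recorded in each group, and the value is the treated-group measurement divided by that of the vehicle-treated control group.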

[1] = dose: 50.0 mg/kg/injection, schedule: Q01DX005 (ip), vehicle: saline with Tween-80
[2] = dose: 100.0 mg/kg/injection, schedule: Q01DX005 (ip), vehicle: saline with Tween-80
[3] = dose: 200.0 mg/kg/injection, schedule: Q01DX005 (ip), vehicle: saline with Tween-80
[4] = dose: 100.0 mg/kg/injection, schedule: Q04DX003 (ip), vehicle: Klucel (hydroxypropylcellulose) (HPC)
[5] = dose: 200.0 mg/kg/injection, schedule: Q04DX003 (ip), vehicle: Klucel (hydroxypropylcellulose) (HPC)
[6] = dose: 50.0 mg/kg/injection, schedule: Q01DX005 (ip), vehicle: Klucel (hydroxypropylcellulose) (HPC)
[7] = dose: 100.0 mg/kg/injection, schedule: Q01DX005 (ip), vehicle: Klucel (hydroxypropylcellulose) (HPC)
[8] = dose: 200.0 mg/kg/injection, schedule: Q01DX005 (ip), vehicle: Klucel (hydroxypropylcellulose) (HPC)
[9] = dose: 400.0 mg/kg/injection, schedule: Q01DX005 (ip), vehicle: saline with Tween-80
[10] = dose: 100.0 mg/kg/injection, schedule: Q04DX002 (ip), vehicle: saline with Tween-80
[11] = dose: 200.0 mg/kg/injection, schedule: Q04DX002 (ip), vehicle: saline with Tween-80
[12] = dose: 50.0 mg/kg/injection, schedule: Q01DX009 (ip), vehicle: Klucel (hydroxypropylcellulose) (HPC)
[13] = dose: 100.0 mg/kg/injection, schedule: Q01DX009 (ip), vehicle: Klucel (hydroxypropylcellulose) (HPC)
[14] = dose: 200.0 mg/kg/injection, schedule: Q01DX009 (ip), vehicle: Klucel (hydroxypropylcellulose) (HPC)
[15] = dose: 50.0 mg/kg/injection, schedule: Q04DX003 (ip), vehicle: saline with Tween-80
[16] = dose: 100.0 mg/kg/injection, schedule: Q04DX003 (ip), vehicle: saline with Tween-80
[17] = dose: 200.0 mg/kg/injection, schedule: Q04DX003 (ip), vehicle: saline with Tween-80
[18] = dose: 400.0 mg/kg/injection, schedule: Q04DX003 (ip), vehicle: saline with Tween-80
[19] = dose: 12.5 mg/kg/injection, schedule: Q01DX009 (ip), vehicle: saline with Tween-80
[20] = dose: 25.0 mg/kg/injection, schedule: Q01DX009 (ip), vehicle: saline with Tween-80
[21] = dose: 50.0 mg/kg/injection, schedule: Q01DX009 (ip), vehicle: saline with Tween-80
[22] = dose: 60.0 mg/kg/injection, schedule: Q01DX005 (ip), vehicle: saline with Tween-80
[23] = dose: 120.0 mg/kg/injection, schedule: Q01DX005 (ip), vehicle: saline with Tween-80
[24] = dose: 240.0 mg/kg/injection, schedule: Q01DX005 (ip), vehicle: saline with Tween-80

Measured: T/C

C/C(N=NC(=S)N1CCCCC1C)=C1\C=CC=CN1O (stereo not given)
inactive: [1] 110 % of control | [2] 97 % of control | [3] 104 % of control

N#CC1(c2ccccc2)CCN(c2c3ccccc3nc3ccccc23)CC1
inactive: [4] 103 % of control and 110 % of control | [5] 109 % of control and 112 % of control | dose: 400.0 mg/kg/injection, schedule: Q04DX003 (ip), vehicle: Klucel (hydroxypropylcellulose) (HPC) 117 % of control and 123 % of control

CCOC(=O)CNC(=O)C(CSCc1ccccc1)NC(=O)C(NC(=O)OCc1ccccc1)C(C)C (stereo not drawn) (Cbz-Val-Cys(Bn)-Gly-OEt; configuration not given here)
inactive: [6] 98 % of control | [7] 100 % of control | [8] 88 % of control

O=C1C=CC(=Nc2ccc3[nH]c4ccccc4c3c2)C=C1
inactive: [1] 101 % of control and 92 % of control and 96 % of control | [2] 104 % of control and 93 % of control and 96 % of control | [3] 108 % of control and 121 % of control and 96 % of control | [9] 108 % of control

CCCC(=O)ON(C)C(=O)CCC
inactive: [2] 96 % of control | [3] 105 % of control | [9] 117 % of control

Cc1ccc([B-]23OCC[N+]2(CNC(=O)C2=C(O)C4(O)C(=O)C5=C(O)c6c(O)cccc6C(C)(O)C5CC4C(N(C)C)C2=O)CCO3)cc1 (stereo not given)
inactive: [6] 108 % of control | [7] 108 % of control | [8] 113 % of control

Nc1ncnc2nc(/N=N/SCCC(=O)O)[nH]c12
inactive: [1] 108 % of control | [2] 103 % of control | [3] 100 % of control

CCOC(=O)C(NC(C)=O)(C(=O)OCC)C1CCCC1=O (stereo not given)
inactive: dose: 60.0 mg/kg/injection, schedule: Q01DX005 (ip), vehicle: saline 94 % of control | dose: 120.0 mg/kg/injection, schedule: Q01DX005 (ip), vehicle: saline 96 % of control | dose: 240.0 mg/kg/injection, schedule: Q01DX005 (ip), vehicle: saline 100 % of control

CC(C)CS(=O)(=O)c1ncnc2nc[nH]c12
inactive: [6] 102 % of control | [7] 97 % of control | [8] 91 % of control

CC1(C)C(N)C(C)(C)C1N (stereo not given)
inactive: dose: 50.0 mg/kg/injection, schedule: Q01DX009 (ip), vehicle: saline 94 % of control | dose: 100.0 mg/kg/injection, schedule: Q01DX009 (ip), vehicle: saline 97 % of control | dose: 200.0 mg/kg/injection, schedule: Q01DX009 (ip), vehicle: saline 86 % of control

O=Cc1ccccc1-c1ccccc1C=O
inactive: [10] 106 % of control | [11] 103 % of control

c1cnc2c3cnc4sccc4c3nn2c1
inactive: [10] 93 % of control | [11] 88 % of control | dose: 400.0 mg/kg/injection, schedule: Q04DX002 (ip), vehicle: saline with Tween-80 93 % of control

C=CCSc1nc2ccc(NCN3C(=O)c4ccccc4C3=O)cc2s1
inactive: [12] 96 % of control | [13] 96 % of control | [14] 98 % of control

COC1/C=C\OC2(C)Oc3c(C)c(O)c4c(O)c(c5[nH]cnc5c4c3C2=O)NC(=O)/C(C)=C\C=C\C(C)C(O)C(C)C(O)C(C)C(OC(C)=O)C1C (stereo not given)
inactive: dose: 25.0 mg/kg/injection, schedule: Q01DX009 (ip), vehicle: Klucel (hydroxypropylcellulose) (HPC) 102 % of control | [12] 102 % of control | [13] 100 % of control | [14] 108 % of control

[N-]=[N+]=NC12CC3CC4C5CC(CC41)CC2[C@H]5C3
inactive: [1] 97 % of control | [2] 99 % of control | [3] 100 % of control

OC1(C(O)(c2ccc(-c3ccccc3)cc2)c2ccc(-c3ccccc3)cc2)CCCCC1
inactive: [1] 90 % of control | [2] 87 % of control

CN1C(=O)C2(OC(N)=C(O)C2=O)c2ccccc21 (stereo not given)
inactive: [6] 99 % of control | [7] 96 % of control | [8] 97 % of control

CC(C)CCNc1ncnc2[nH]ncc12
inactive: dose: 25.0 mg/kg/injection, schedule: Q04DX003 (ip), vehicle: saline with Tween-80 95 % of control | [15] 95 % of control | [16] 100 % of control

Nc1cccc(SC2CC(=O)N(c3ccc4c(c3)OCO4)C2=O)c1 (stereo not given)
inactive: [4] 92 % of control | [5] 101 % of control

CC(C)(c1cc(Cl)c(OCCO)c(Cl)c1)c1cc(Cl)c(OCCO)c(Cl)c1
inactive: [16] 100 % of control | [17] 100 % of control | [18] 95 % of control

O=[N+]([O-])c1ccccc1-c1ccccc1N=Cc1ccccc1
inactive: dose: 6.25 mg/kg/injection, schedule: Q01DX009 (ip), vehicle: saline with Tween-80 96 % of control | [19] 106 % of control | [20] 86 % of control

CCC1(c2ccccn2)OCC(CBr)O1 (stereo not given)
inactive: [1] 93 % of control | [2] 100 % of control | [3] 93 % of control

Cc1cc(O)c2c3c(c(=O)oc2c1)CP(=O)(c1ccccc1)CC3 (stereo not given)
inactive: dose: 100.0 mg/kg/injection, schedule: Q01DX001 (ip), vehicle: saline with Tween-80 94 % of control | dose: 200.0 mg/kg/injection, schedule: Q01DX001 (ip), vehicle: saline with Tween-80 91 % of control | dose: 400.0 mg/kg/injection, schedule: Q01DX001 (ip), vehicle: saline with Tween-80 91 % of control

CSC(C#N)(Cc1ccccc1)N1CCOCC1 (stereo not given)
inactive: [16] 107 % of control | [17] 103 % of control | [18] 103 % of control

NC(CSC(c1ccccc1)(c1ccccc1)c1ccc(Cl)cc1)C(=O)O (stereo not given)
active: dose: 33.0 mg/kg/injection, schedule: Q04DX003 (ip), vehicle: saline with Tween-80 177 % of control | [15] 181 % of control and 272 % of control | dose: 75.0 mg/kg/injection, schedule: Q04DX003 (ip), vehicle: saline with Tween-80 200 % of control
inactive: [17] 100 % of control

CN(C)C1CCc2ccccc2C1OC(=O)/C=C/c1ccccc1 (stereo not given)
inactive: [19] 101 % of control | [20] 106 % of control | [21] 111 % of control | dose: 100.0 mg/kg/injection, schedule: Q01DX009 (ip), vehicle: saline with Tween-80 111 % of control

O=c1cc2cccccc-2o1
inactive: dose: 100.0 mg/kg/injection, schedule: Q01DX001 (ip), vehicle: Klucel (hydroxypropylcellulose) (HPC) 101 % of control | dose: 200.0 mg/kg/injection, schedule: Q01DX001 (ip), vehicle: Klucel (hydroxypropylcellulose) (HPC) 103 % of control

N#Cc1ccc(N(O)C(=O)c2ccccc2)cc1
inactive: [19] 99 % of control | [20] 100 % of control | [21] 99 % of control and 100 % of control

O=C(C1CC2CCC1C2)C1CC2CCC1C2 (stereo not given)
inactive: dose: 28.2 mg/kg/injection, schedule: Q01DX009 (ip), vehicle: saline with Tween-80 100 % of control | dose: 56.5 mg/kg/injection, schedule: Q01DX009 (ip), vehicle: saline with Tween-80 95 % of control | dose: 113.0 mg/kg/injection, schedule: Q01DX009 (ip), vehicle: saline with Tween-80 100 % of control

CCC1=CC2CN3CCc4c([nH]c5ccccc45)C(C(=O)OC)(C2)C13 (stereo not given)
inactive: [1] 105 % of control | [2] 108 % of control

Cc1ccc2[nH]c3c(c2c1)C(=O)CCC3
inactive: [6] 97 % of control | [7] 95 % of control | [8] 92 % of control

Cc1ccoc1
inactive: dose: 7.5 mg/kg/injection, schedule: Q01DX005 (ip), vehicle: saline with Tween-80 105 % of control | dose: 15.0 mg/kg/injection, schedule: Q01DX005 (ip), vehicle: saline with Tween-80 100 % of control | dose: 30.0 mg/kg/injection, schedule: Q01DX005 (ip), vehicle: saline with Tween-80 97 % of control | [22] 98 % of control | [23] 101 % of control | [24] 106 % of control

COc1ccc(C2(c3ccc(OC)cc3)ON(C(c3ccccc3)c3ccccc3)C2=O)cc1
inactive: [22] 95 % of control | [23] 91 % of control | [24] 89 % of control

O/N=C/C(Cl)(Cl)Cl
inactive: dose: 3.12 mg/kg/injection, schedule: Q01DX009 (ip), vehicle: saline 105 % of control | dose: 6.25 mg/kg/injection, schedule: Q01DX009 (ip), vehicle: saline 109 % of control | dose: 12.5 mg/kg/injection, schedule: Q01DX009 (ip), vehicle: saline 107 % of control and 97 % of control | dose: 25.0 mg/kg/injection, schedule: Q01DX009 (ip), vehicle: saline 100 % of control and 93 % of control
